Laboratory results published in patent US9242997B2, “Tricyclic pyrazole sulphonamide compunds and methods of making and using same” (Zafgen, Inc., priority 2011, dated 2016).

The compounds below were run against T1, Human recombinant MetAP2 (Homo sapiens, UniProt P50579) (assay: recombinant human MetAP2 inhibition assay (MAS substrate, amino acid oxidase/Amplex red fluorescence)). Conditions: manganese enzyme, 30 minutes at 25° C., pH 7.5, 0.75 mM MAS substrate, 1% DMSO.
T1 construct: made in house; host or cells: Sf9 insect cells
Type: biochemical
Protocol: Compounds are tested for their capacity to inhibit recombinant human MetAP2 activity using the following assay.
Human recombinant MetAP2 expressed in Sf9 cells followed by affinity purification and EDTA treatment to remove endogenous active site cation was dialysed against MnCl2 to produce the manganese enzyme used in the assay. The assay was carried out for 30 minutes at 25° C. in 50 mM HEPES buffer containing 100 mM NaCl, pH 7.5 the presence of 0.75 mM Methionine-Alanine-Serine (MAS) substrate and 50 μg/ml amino acid oxidase using a dilution of purified MetAP2 giving>3-fold signal: noise. Cleavage of the substrate by MetAP2 and oxidation of free methionine by amino acid oxidase was detected and quantified using fluorescence generated by Amplex red (10-acetyl-3,7-dihydroxyphenoxazine) in combination with horseradish peroxidase which detects H2O2 released during the oxidation step. The fluorescent signal was detected using a multiwell fluorimeter. Compounds were diluted in DMSO prior to addition to assay buffer, the final DMSO concentration in the assay being 1%.
The IC50 is defined as the concentration at which a given compound achieves 50% inhibition of control. IC50 values are calculated using the XLfit software package (version 2.0.5).

T1 sequence (P50579 whole entry): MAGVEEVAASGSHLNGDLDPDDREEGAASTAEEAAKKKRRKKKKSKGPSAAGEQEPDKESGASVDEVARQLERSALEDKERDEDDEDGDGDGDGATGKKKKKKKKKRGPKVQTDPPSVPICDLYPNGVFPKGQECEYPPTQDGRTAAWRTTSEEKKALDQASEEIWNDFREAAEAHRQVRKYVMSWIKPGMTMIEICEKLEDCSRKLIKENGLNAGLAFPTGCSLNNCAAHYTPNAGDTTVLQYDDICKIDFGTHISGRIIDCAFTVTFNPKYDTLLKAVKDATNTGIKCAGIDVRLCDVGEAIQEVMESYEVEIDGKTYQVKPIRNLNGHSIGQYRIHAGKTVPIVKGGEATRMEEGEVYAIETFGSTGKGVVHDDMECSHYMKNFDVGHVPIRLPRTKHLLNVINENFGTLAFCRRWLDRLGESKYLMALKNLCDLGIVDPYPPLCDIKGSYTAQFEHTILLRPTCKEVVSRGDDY

`CCN(CC)C/C=C\c1cc(F)ccc1S(=O)(=O)Nc1ccc2c(c1C(=O)O)OCc1cccn1-2` [Example 2, 7-[2-((Z)-3-Diethylaminoprop-1-enyl)-4-fluorobenzenesulfonylamino]-4H-benzo[b]pyrrolo[1,2-d][1,4]oxazine-6-carboxylic acid] and `CCN(CC)C/C=C\c1cc(F)ccc1S(=O)(=O)Nc1ccc2c(c1C(=O)O)OCc1nccn1-2` [Example 4, 7-[2-((Z)-3-Diethylaminoprop-1-enyl)-4-fluorobenzenesulfonylamino]-4H-5-oxa-3,9b-diazacyclopenta[a]naphthalene-6-carboxylic acid] cannot be ordered by IC50: < 50 nM for the first, < 50 nM for the second.

First: CCN(CC)C/C=C\c1cc(F)ccc1S(=O)(=O)Nc1ccc2c(ccn3nccc23)c1C(=O)O [Example 1, 8-[2-((Z)-3-Diethylaminoprop-1-enyl)-4-fluorobenzenesulfonylamino]-pyrazolo[5,1-a]isoquinoline-7-carboxylic acid]
Second: CCN(CC)C/C=C\c1cc(F)ccc1S(=O)(=O)Nc1ccc2c(c1C(=O)O)CCn1nccc1-2 [Example 3, 8-[2-((Z)-3-Diethylaminoprop-1-enyl)-4-fluorobenzenesulfonylamino]-5,6-dihydropyrazolo[5,1-a]isoquinoline-7-carboxylic acid]
The IC50 of the first is lower: < 50 nM for the first, 50 to 500 nM for the second. The first is the more potent here.
